Measurements reported in patent US20170296491A1, “PHARMACEUTICAL COMPOSITIONS COMPRISING LEVODOPA AMIDE AND USES THEREOF” (priority 2015, published 2017).
Counter-ions that a name gives are not always drawn.

How the values were obtained:
[1] = Plasma pharmacokinetics of LDA and LD after oral LDA-HCl with and without CD in rats; type: in vivo; conditions: oral LDA-HCl 25 mg/kg with or without oral 10 mg/kg CD
Procedure: The purpose of this experiment was to determine the plasma pharmacokinetics of LDA and LD following oral administration of LD or LDA-HCl with and without CD in Wistar rats.
Wistar rats underwent fasting overnight prior to the dosing and received food only 2 hour post-dosing. The method used to dose orally was via oesophagotubage. Solutions were prepared as described above.

[2] = Effect of preparation method and pH on stability of LDA-HCl/CD formulations; type: physicochemical; conditions: 5 days at room temperature (Table 7)
Procedure: LDA-HCl/CD formulations were prepared by the following methods, and were then tested for stability. Method 1. Carbidopa (CD, powder) [Teva Pharmaceuticals Ltd., Israel] was added to LDA-HCl solution. […] Precipitation occurred at room temperature. Method 2. Liquid CD formulations were prepared by weighting CD [Teva Pharmaceuticals Ltd., Israel] in a suitable container with different L-arginine [Merck] weights to obtain a final concentration of 0.8% CD (wet form, 0.75% dry form) in different molar ratios to arginine (Table 6). CD formulations were prepared as described in the International Publication No. WO 2010/134074. LDA-HCl (powder) was added to CD solutions to attain the final desired concentration of LDA-HCl/CD formulations. Method 3. CD solutions (40 mg/ml, prepared as described in the International Publication No. WO 2010/134074) were mixed with LDA-HCl solutions to attain the final desired concentration of LDA/CD formulations. The LDA-HCl formulations were prepared by dissolving 200, 160 or 120 mg/ml of LDA-HCl in 40 mM citric buffer. The chemical stability of 7 LDA-HCl/CD formulations was evaluated by HPLC analysis at t0 and after 5 days at room temperature. The recovery after 5 days at room temperature was calculated compared to t0 (Table 7).

[3] = Physical stability of LDA-HCl solutions with or without added CD-Arg formulation; type: physicochemical; conditions: preferably pH >4.6
Procedure: HCl solutions at 3 different concentrations containing 0.3% Tween 80 were added to LDA to obtain solutions having a final LDA concentration of 200 mg/ml and a molar ratio of 1:0.89, 1:0.92 and 1:0.95 LDA:HCl. CD-Arg formulation (CD:Arg molar ratio 1:1.25) was prepared in Tween 80 0.3% and was added gradually under stirring to 4 volumes of each of the 3 LDA-HCl solutions. The physical stability of the solutions was evaluated (Table 15). As shown, the addition of CD to LDA-HCl solutions yielded stable solutions if added to LDA-HCl solutions having a pH>3.8, preferably pH >4.6.

[4] = Stability of LDA-HCl 50 mg/ml in citrate or phosphate buffer, 4 days at 37° C., HPLC; type: physicochemical
Procedure: Liquid formulations were prepared by dissolving LDA-HCl, 50 mg/ml in buffer citrate or buffer phosphate at different pH levels (Table 2). The formulations were incubated 4 days at 37° C., their stability was evaluated by HPLC analysis at the end of the fourth day, and the recovery after 4 days at 37° C. was calculated compared to T=0.

[5] = Physical stability (visual) of LDA-HCl 50 mg/ml in water or buffers at room temperature; type: physicochemical; conditions: for Color at T = 24 h (RT): 50 mg/ml; for time physically stable at room temperature: 5% LDA-HCl and water or a buffer
Procedure: (§1) Liquid formulations were prepared by dissolving LDA-HCl, 50 mg/ml in water or different buffers (40 mM) at various pH levels. The physical stability of LDA was determined visually after 24 hours and 7 days (Table 3), and the chemical stability of LDA was determined by HPLC analysis (Table 4) after 24 h at room temperature (RT) and expressed as % recovery compared to t0.

[6] = Chemical stability (HPLC) of LDA-HCl 50 mg/ml in water or buffers after 24 h at room temperature; type: physicochemical
Procedure: as §1

[7] = Long term stability of LDA-HCl 200 mg/ml in citric buffer with NAC, 2 weeks at 37° C.; type: physicochemical
Procedure: Liquid formulation comprising LDA-HCl in citric buffer was prepared by dissolving 200 mg/ml LDA-HCl in 40 mM citric buffer with 0.05% N-acetylcysteine (NAC) as antioxidant. The formulation was incubated for 2 weeks at 37° C. The stability of LDA after 14 days at 37° C. was evaluated by HPLC analysis, and the recovery calculated compared to t0 (Table 5).

[8] = 200 mg/ml LDA-HCl, 40 mM citric buffer, 0.05% NAC

SMILES: C[C@@](Cc1ccc(O)c(O)c1)(NN)C(=O)O [CD, Carbidopa]
- effect of CD on plasma concentration of LD [1]: increases
- effect of CD on plasma concentrations of LDA [1]: no effect
- chemical stability in LDA-HCl/CD formulations [2]: pH-dependent

SMILES: NC(=O)C(N)Cc1ccc(O)c(O)c1 (stereo not drawn) [LDA-HCl, 2-amino-3-(3,4-dihydroxyphenyl)propanamide]
- pH of LDA-HCl solution at which addition of CD yielded stable solutions [3]: > 3.8
- stability at 37° C. ([4]; in buffer phosphate at pH>5.7): not stable
- time stable at 37° C. ([4]; in citrate buffer): at least 4 days
- Color at T = 24 h (RT) ([5]; Acetate pH 3.76): light yellow
- Color at T = 24 h (RT) ([5]; Acetate pH 4.72): light yellow
- Color at T = 24 h (RT) ([5]; Citrate pH 3.09): light yellow
- Color at T = 24 h (RT) ([5]; Citrate pH 3.90): light yellow
- Color at T = 24 h (RT) ([5]; Citrate pH 4.85): light yellow
- Color at T = 24 h (RT) ([5]; Citrate pH 5.65): medium yellow
- Color at T = 24 h (RT) ([5]; Histidine pH 6.20): medium yellow
- Color at T = 24 h (RT) ([5]; Phosphate pH 6.03): medium yellow
- Color at T = 24 h (RT) ([5]; Phosphate pH 6.32): medium yellow
- Color at T = 24 h (RT) ([5]; Tartrate pH 3.84): light yellow
- Color at T = 24 h (RT) ([5]; Tris pH 5.39): light yellow
- Color at T = 24 h (RT) ([5]; Tris pH 6.14): medium yellow
- Color at T = 24 h (RT) ([5]; Tris pH 6.61): medium yellow
- Color at T = 24 h (RT) ([5]; Water for injection (WFI) pH 3.56): light yellow
- Color at T = 24 h (RT) ([5]; Water for injection (WFI) pH 4.14): light yellow
- Color at T = 24 h (RT) ([5]; Water for injection (WFI) pH 4.95): light yellow
- Color at T = 24 h (RT) ([5]; Water for injection (WFI) pH 5.93): medium yellow
- Color at T = 24 h (RT) ([5]; Water for injection (WFI) pH 6.44): medium yellow
- Color at T = 24 h (RT) ([5]; Water for injection (WFI) pH 6.91): strong yellow
- time physically stable at room temperature ([5]; all conditions tested): 24 h
- time physically stable at room temperature ([5]; only formulations having a pH<5.5): at least 7 days
- time chemically stable at room temperature ([6]; 5% LDA-HCl and water or a buffer, pH ranging between 3 to 7): at least 24 h
- LDA (mg/ml) at T = 0 ([6]; Acetate pH 3.76): 52.09 mg/mL
- LDA (mg/ml) at T = 24 hr (RT) ([6]; Acetate pH 3.76): 52.41 mg/mL
- LDA (mg/ml) at T = 0 ([6]; Acetate pH 4.72): 52.66 mg/mL
- LDA (mg/ml) at T = 24 hr (RT) ([6]; Acetate pH 4.72): 53.05 mg/mL
- LDA (mg/ml) at T = 0 ([6]; Citrate pH 3.09): 51.84 mg/mL
- LDA (mg/ml) at T = 24 hr (RT) ([6]; Citrate pH 3.09): 52.09 mg/mL
- LDA (mg/ml) at T = 0 ([6]; Citrate pH 3.9): 51.34 mg/mL
- LDA (mg/ml) at T = 24 hr (RT) ([6]; Citrate pH 3.9): 51.7 mg/mL
- LDA (mg/ml) at T = 0 ([6]; Citrate pH 4.85): 52.05 mg/mL
- LDA (mg/ml) at T = 24 hr (RT) ([6]; Citrate pH 4.85): 52.75 mg/mL
- LDA (mg/ml) at T = 0 ([6]; Citrate pH 5.65): 51.24 mg/mL
- LDA (mg/ml) at T = 24 hr (RT) ([6]; Citrate pH 5.65): 51.03 mg/mL
- LDA (mg/ml) at T = 0 ([6]; Histidine pH 6.2): 51.27 mg/mL
- LDA (mg/ml) at T = 24 hr (RT) ([6]; Histidine pH 6.2): 51.76 mg/mL
- LDA (mg/ml) at T = 0 ([6]; Phosphate pH 6.03): 51.32 mg/mL
- LDA (mg/ml) at T = 24 hr (RT) ([6]; Phosphate pH 6.03): 51.36 mg/mL
- LDA (mg/ml) at T = 0 ([6]; Phosphate pH 6.32): 52.05 mg/mL
- LDA (mg/ml) at T = 24 hr (RT) ([6]; Phosphate pH 6.32): 51.82 mg/mL
- LDA (mg/ml) at T = 0 ([6]; Tartrate pH 3.84): 52.46 mg/mL
- LDA (mg/ml) at T = 24 hr (RT) ([6]; Tartrate pH 3.84): 52.26 mg/mL
- LDA (mg/ml) at T = 0 ([6]; Tris pH 5.39): 51.88 mg/mL
- LDA (mg/ml) at T = 24 hr (RT) ([6]; Tris pH 5.39): 52.08 mg/mL
- LDA (mg/ml) at T = 0 ([6]; Tris pH 6.14): 51.79 mg/mL
- LDA (mg/ml) at T = 24 hr (RT) ([6]; Tris pH 6.14): 51.73 mg/mL
- LDA (mg/ml) at T = 0 ([6]; Tris pH 6.61): 51.62 mg/mL
- LDA (mg/ml) at T = 24 hr (RT) ([6]; Tris pH 6.61): 51.74 mg/mL
- LDA (mg/ml) at T = 0 ([6]; WFI pH 3.56): 51.91 mg/mL
- LDA (mg/ml) at T = 24 hr (RT) ([6]; WFI pH 3.56): 51.34 mg/mL
- LDA (mg/ml) at T = 0 ([6]; WFI pH 4.14): 51.3 mg/mL
- LDA (mg/ml) at T = 24 hr (RT) ([6]; WFI pH 4.14): 51.57 mg/mL
- LDA (mg/ml) at T = 0 ([6]; WFI pH 4.95): 51.07 mg/mL
- LDA (mg/ml) at T = 24 hr (RT) ([6]; WFI pH 4.95): 50.23 mg/mL
- LDA (mg/ml) at T = 0 ([6]; WFI pH 5.93): 51.32 mg/mL
- LDA (mg/ml) at T = 24 hr (RT) ([6]; WFI pH 5.93): 50.5 mg/mL
- LDA (mg/ml) at T = 0 ([6]; WFI pH 6.44): 51.24 mg/mL
- LDA (mg/ml) at T = 24 hr (RT) ([6]; WFI pH 6.44): 50.33 mg/mL
- LDA (mg/ml) at T = 0 ([6]; WFI pH 6.91): 51.05 mg/mL
- LDA (mg/ml) at T = 24 hr (RT) ([6]; WFI pH 6.91): 49.54 mg/mL
- LDA content at T = 0 [7, 8]: 18.69
- LDA content at T = 2 w, 37° C. [7, 8]: 19.01
- time stable ([7]; high concentrations of LDA-HCl and NAC in citric buffer): at least 14 days
